One data set deals with PI3K/AKT signaling. Briefly: Gβ/PI3K/AKT/GSK3α/β pathway by blotting analysis in hTS cells. Format: cell-based, human. As to the method:
(§1) In cell culture, hTS cells were treated with bFGF and harvested at time as indicated and put into RIPA lysis solution (MILLIPORE®) supplemented with protease (Thermo Scientific) and phosphatase inhibitor (Cell Signaling Technology). After electrophoresis of 30 μg lysates on polyacrylamide gels, electroblotting onto PDVF membranes (MILLIPORE®) was performed. By blocking of 5% non-fat dry milk in PBS at room temperature (I hr), target proteins were incubated with primary antibodies. All membranes were incubated with chemiluminescent (MILLIPORE®) and imaging was captured by the CHEMIDOC® XRS system (BIO-RAD®). Antibodies used were listed in Key Resource Table. Data were analyzed by AlphaEaseFC (version 4.0.0).

Another data set deals with T1, FGFR1 (Homo sapiens, UniProt P11362).
T1 construct: endogenous in cells; host or cells: human trophoblast stem (hTS) cells
T1 sequence (P11362 22-822): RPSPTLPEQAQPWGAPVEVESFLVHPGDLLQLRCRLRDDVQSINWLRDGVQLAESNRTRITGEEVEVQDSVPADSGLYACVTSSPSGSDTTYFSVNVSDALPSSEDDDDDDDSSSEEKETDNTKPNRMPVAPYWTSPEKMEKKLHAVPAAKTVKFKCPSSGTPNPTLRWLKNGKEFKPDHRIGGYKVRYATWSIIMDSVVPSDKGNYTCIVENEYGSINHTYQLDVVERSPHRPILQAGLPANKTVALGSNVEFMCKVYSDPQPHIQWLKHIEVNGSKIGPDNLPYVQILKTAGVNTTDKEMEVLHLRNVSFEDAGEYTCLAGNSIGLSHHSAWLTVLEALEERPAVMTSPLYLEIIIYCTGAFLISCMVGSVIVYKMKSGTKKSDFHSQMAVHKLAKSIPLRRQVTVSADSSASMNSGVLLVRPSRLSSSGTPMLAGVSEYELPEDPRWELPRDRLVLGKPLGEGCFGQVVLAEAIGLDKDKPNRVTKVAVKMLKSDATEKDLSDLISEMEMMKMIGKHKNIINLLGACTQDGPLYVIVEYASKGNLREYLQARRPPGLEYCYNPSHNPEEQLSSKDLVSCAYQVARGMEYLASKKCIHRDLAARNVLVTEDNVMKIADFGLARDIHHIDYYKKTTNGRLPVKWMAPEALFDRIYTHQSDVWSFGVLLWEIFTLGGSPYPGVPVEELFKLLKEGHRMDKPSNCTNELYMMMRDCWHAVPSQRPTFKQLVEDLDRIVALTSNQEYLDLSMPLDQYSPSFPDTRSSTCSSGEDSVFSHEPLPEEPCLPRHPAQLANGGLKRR
Briefly: bFGF activation of FGFR1 and downstream PI3K signal, Western blot assay. Format: cell-based. As to conditions: bFGF 10 ng/ml. Here is the method:
as §1
In general terms: Immunoblotting shows a protein as a band on a membrane.

The next data set deals with CD4. As to the kind of experiment: IL-8 generated CD4(+) prCTBs, Western blot assay. The class given is cell-based, human. As to conditions: IL-8 30 ng/ml. As to the method:
(§2) After electrophoresis of 30 μg lysates on polyacrylamide gels, electroblotting onto PDVF membranes (MILLIPORE®) was performed. By blocking of 5% non-fat dry milk in PBS at room temperature (I hr), target proteins were incubated with primary antibodies. All membranes were incubated with chemiluminescent (MILLIPORE®) and imaging was captured by the CHEMIDOC® XRS system (BIO-RAD®). Antibodies used were listed in Key Resource Table. Data were analyzed by AlphaEaseFC (version 4.0.0).

Another data set has as its system Foxp3. As to the kind of experiment: IL-8 induced Foxp3 via CXCR2/STAT3 signaling, Western blot. Format: cell-based, human. The settings on record: IL-8 30 ng/ml; for IL-8-induced Foxp3 in presence of inhibitor: n=3 cell lines. Here is the method:
as §2

The next data set has as its system CD56. As to the kind of experiment: IL-8 induced CD56 via CXCR2/STAT3 signaling, Western blot assay. Format: cell-based, human. The settings on record: IL-8 30 ng/ml. As to the method: as §2
The next data set deals with hTS cells. As to the kind of experiment: Insulin secretion by RIA in secretomic analysis. Format: cell-based, human. As to conditions: hTS cells (1×10^6 cells), glucose 20 mM, gliclazide 10 μM, nifedipine 10 μM, n=3. Here is the method:
The hTS cell culture media (10 ml) were harvested at 80-90% confluence followed by centrifugation (3,000 rpm, 30 min, 4° C.). The supernatants were further concentrated to 1 ml by using 3 kDa VIVASPIN® concentrator (Sigma). The concentrated supernatant was further detected for TGF-β1, HLA-G, and PAI-1 by immunoblotting assay. IL-10 level was measured by OPTEIA® ELISA assay kit following the supplier's instructions (BD Pharmingen, San Diego). The range of detectable IL-10 concentration was between 2 and 2,000 pg/ml. An aliquot of 100 μl sample was measured in triplicate. Total protein of supernatant was measured by using Pierce BCA protein assay kit (THERMO […]®). […] Media were collected at different time (5, 10, 20, 30, 60 and 120 min), freeze dried by lyophilizer (VIRTIS®; Warminster), and rehydrated with sterile water (400 μl) for radioimmunoassay (RIA). C-peptide and insulin levels were determined by C-PEP II-RIA-CT (DIAsource ImmunoAssays S. A.) and Coat-A-Count insulin (Siemens Healthcare Diagnostics), respectively, in 5 assays.

Another data set deals with prCTBs. As to the kind of experiment: Transwell invasion and migration assay, prCTBs. Format: cell-based, human. As to conditions: dose- and time-dependent; 4×10^3 cells/ml; n=3. As to the method:
[…] To do this, add extracellular matrix (ECM) materials on top of the transwell membrane and then add cells on top of the ECM. For example, […]® is thawed and liquefied on ice, and then 30-50 μl of […]® is added to a 24-well transwell insert and solidified in a 37 C incubator for 15-30 minutes to form a thin gel layer. Cell solution is added on top of the […]® coating to simulate invasion through the extracellular matrix. The transwell cell migration assay measures the chemotactic capability of cells toward a chemo-attractant. The transwell cell invasion assay, however, measures both cell chemotaxis and the invasion of cells through extracellular matrix, a process that is commonly found in cancer metastasis or embryonic development. Using a pipette, very carefully add 600 μl of the desired chemo-attractant into the bottom of the lower chamber in a 24-well plate. Add the chemo-attractant without moving the transwell insert and avoid generating bubbles. Make sure the chemo-attractant liquid in the bottom well makes contact with the membrane in the upper well to form a chemotactic gradient. Incubation time is dependent on cell type and the chemo-attractant being used. Note: Further tests may be needed to determine the incubation period. […] The number of migrated cells can be counted by using hemocytometer or flow cytometer. […]

The subject of data set [1] is hTSCs. As to the kind of experiment: Transwell invasion and migration assay, hTSCs. As to conditions: dose- and time-dependent; 4×10^3 cells/ml; n=3. The class given is cell-based, human.
In data set [2] the test system is hTSCs. As to the kind of experiment: RT-qPCR analysis of IL-6 / IL-8 treated hTSCs. As to conditions: n=4; for CREB1 mRNA: IL-6 10 ng/ml or IL-8 30 ng/ml. The class given is cell-based, human. Here is the method:
RNA was isolated from hTS cells in triplicate or quintuple samples using TRIZOL® reagent (INVITROGEN®) with DNAase I on-column digestion (Qiagen) according to manufacturer's protocol. Total RNA (500 ng) was used for reverse transcription with […] cDNA synthesis kit (BIO-RAD®). PCR carried out in duplicate using 1/40th of the cDNA per reaction and 400 nM forward and reverse primers. For miRNA stem-loop qPCR, we used single tube TAQMAN® miRNA assays as manufacturer's instruction (Applied Biosystems). All RT reactions, including no-template controls and RT minus controls, were carried out in a GENEAMP® PCR 9700 Thermocycler (Applied Biosystems). Comparative real-time PCR was performed in triplicate or quintuple, including no-template controls, using specific primers for miR-124 or RNU6B (Applied Biosystems). U6 snRNA (RNU6B; Applied Biosystems) served as an endogenous control. Relative expression was calculated using SDS2.2.2 software (Applied Biosystems) was used for comparative ΔCt analysis.
(In general: Quantitative PCR measures a nucleic acid by following its amplification.)

A further data set concerns β-hCG. Briefly: IL-6 induced β-hCG, Western blot assay. The class given is cell-based, human. The settings on record: IL-6 10 ng/ml, via GnRHR and IL-6R. As to the method:
as §2

Another data set relates to IL-6 and IL-8. Briefly: bFGF induction of IL-6 and IL-8. Format: cell-based, human. The settings on record: bFGF 10 ng/ml; time-dependent; n=3 cell lines. Here is the method:
To explore how prCTBs produce cytokines IL-6 and IL-8, hTSCs were incubated with bFGF for 1-day mimicking the transient stay in the fallopian tube. Mechanistically, bFGF activated its receptor FGFR1 at cell membrane to induce PI3K/phosphorylated (p)AKT signaling. In turn, pAKT interacted and phosphorylated downstream pCREB1 (cAMP responsive element binding protein 1) to activate pCREB1 signaling. These molecular processes were verified by using FGFR 1 inhibitor PD166866, and specific shRNAs for PI3K and pAKT (FIGS. 7G-7J). In the nucleus, CREB1 targeted the genes to produce IL-6 in a time-dependent manner (FIG. 7K, left panel) and IL-8 (FIG. 7K, right panel) in a dose-dependent manner, confirmed by ELISA assay (FIG. 7C). These molecular processes occurred co-incidentally with EMT in time and space.

Data set [3] deals with hTSCs. Briefly: bFGF-induced epithelial-mesenchymal transition markers, Western blot assay. The class given is cell-based, human. The settings on record: bFGF 10 ng/ml. As to the method:
as §1

In data set [4] the test system is STAT3, c-JUN, Fas ligand (FasL), Fas. Briefly: STAT3, c-JUN, FasL and Fas by immunoblotting assay. Format: cell-based, human. As to conditions: bFGF 10 ng/ml. As to the method: as §1

As for `NC1(c2ccc(-c3nc4ccn5c(=O)[nH]nc5c4cc3-c3ccccc3)cc2)CCC1` [MK2206], in the data set on PI3K/AKT signaling, the “Gβ-induced phosphorylation of AKT (ser473) and GSK3α/β (ser21/9) in presence of inhibitor” value is reported as “inhibited”.

For the compound `COc1cc(OC)cc(-c2cc3cnc(N)nc3nc2NC(=O)NC(C)(C)C)c1` [PD166866, reference compound], on FGFR1, the “bFGF activation of FGFR1 and PI3K signal in presence of inhibitor” value is given as “inhibited”.

Regarding `Cn1cc(C2=C(c3ccc(Cl)cc3Cl)C(=O)NC2=O)c2ccccc21` [SB216763], the “pMAFA expression in presence of inhibitor” value with PI3K/AKT signaling is given as “inhibited”.

With `O=C(Nc1ccc([N+](=O)[O-])cc1O)Nc1ccccc1Br` [SB225002], in the data set on CD4, the “IL-8-induced CD4 in presence of inhibitor” value is on record as “inhibited”. Besides, the “IL-8-induced Foxp3 in presence of inhibitor” value in the data set on Foxp3 is reported as “inhibited”. Besides, in the data set on CD56, the “IL-8-induced CD56 in presence of inhibitor” value is recorded as “inhibited”.

Take `O=[N+]([O-])c1ccc2c(c1)S(=O)(=O)C=C2` [Stattic]: the “IL-8-induced CD4 in presence of inhibitor” value in the data set on CD4 is given as “inhibited”. Further, the “IL-8-induced Foxp3 in presence of inhibitor” value with Foxp3 is given as “inhibited”. For the same compound, the “IL-8-induced CD56 in presence of inhibitor” value in the data set on CD56 was “inhibited”.

With `Cc1ccc(S(=O)(=O)NC(=O)NN2CC3CCCC3C2)cc1` (stereo not shown) [gliclazide], the insulin secretion result in the data set with hTS cells was “promoted insulin secretion”.

Regarding CXCL2: chemokine (C-X-C motif) ligand 2, the “movement (invasion and migration) of prCTBs” value in the data set with prCTBs is reported as “significantly induced movement”. For the same compound, the “movement (invasion and migration) of hTSCs” value in the data set with hTSCs [1] is “significantly induced movement”.

As to IL-6: interleukin 6, in the data set on hTSCs [2] (hTSCs), the “CREB1 mRNA” value was “upregulated”. Besides, in the data set with hTSCs [2] (IL-6 10 ng/ml, hTSCs), the “IL-6R mRNA” value is reported as “upregulated” and the “β-hCG mRNA” value was “upregulated”. Also, in the data set with β-hCG, the β-hCG induction result is given as “induced β-hCG”.

For IL-8: interleukin 8, the “generation of CD4(+) prCTBs” value in the data set on CD4 was “generated CD4(+) prCTBs”. In addition, the “CREB1 mRNA” value in the data set on hTSCs [2] (hTSCs) is “upregulates”. For the same compound, in the data set with hTSCs [2] (IL-8 30 ng/ml), the “CD56 mRNA” value was “upregulates” and the “conventional receptor IL-8R mRNA” value is “not”. Further, the Foxp3 induction entry in the data set with Foxp3 was “induced Foxp3”. The CD56 induction result in the data set on CD56 is reported as “induced CD56”.

Regarding “MCP-1: monocyte chemoattractant protein-1”, in the data set on prCTBs, the “movement (invasion and migration) of prCTBs” value is reported as “significantly induced movement”. The “movement (invasion and migration) of hTSCs” value with hTSCs [1] is given as “significantly induced movement”.

On to bFGF: basic fibroblast growth factor, for which, in the data set on IL-6 and IL-8, the IL-6 production entry is on record as “induced” and the IL-8 production result is given as “induced”. In the data set with hTSCs [3], the E-cadherin expression entry was “down-regulated”, the TGF-β1 expression entry is “up-regulated” and the vimentin expression entry is given as “up-regulated”. The “activation of FGFR1 and downstream PI3K signal” value with FGFR1 is “activated”. In addition, in [4], the Fas level entry was “downregulation”, the “Fas ligand (FasL) level” value is given as “upregulation”, the STAT3 level entry is given as “upregulation” and the c-JUN level entry is recorded as “upregulation”.

(Values after patent publication US12077777B2, “Precursory regulatory cytotrophoblast cells and uses thereof” (Accelerated BioSciences Corp., priority 2019, dated 2024).)
